This passage reports pest or weed control results from US10485236B2, “Triazole derivatives, intermediates thereof and their use as fungicides” (Bayer CropScience Aktiengesellschaft, priority 2015, dated 2019).

The structures appear in SMILES notation.

For one assay, the system named is Sphaerotheca fuliginea. The assay can be described thus: Example D: in vivo preventive test on Sphaerotheca fuliginea (powdery mildew on cucurbits). The note with it: Podosphaera fuliginea, 360 h; 500 ppm of active ingredient; gherkin plants, preventive spray; evaluated 15 days after inoculation; read-out: efficacy. Here is the method: Example D: In Vivo Preventive Test on Sphaerotheca fuliginea (Powdery Mildew on Cucurbits) [table] The active ingredients are made soluble and homogenized in a mixture of Dimethyl sulfoxide/Acetone//Tween® 80 and then diluted in water to the desired concentration. The young plants of gherkin are treated by spraying the active ingredient prepared as described above. Control plants are treated only with an aqueous solution of Acetone/Dimethyl sulfoxide/Tween® 80. After 24 hours, the plants are contaminated by spraying the leaves with an aqueous suspension of Sphaerotheca fuliginea spores. The contaminated gherkin plants are incubated for 72 hours at 18° C. and at 100% relative humidity and then for 12 days at 20° C. and at 70-80% relative humidity. The test is evaluated 15 days after the inoculation. 0% means an efficacy which corresponds to that of the control plants while an efficacy of 100% means that no disease is observed.

The next assay relates to Septoria tritici. The assay can be described thus: Example C: in vivo preventive test on Septoria tritici (leaf spot on wheat). The note with it: Zymoseptoria tritici, 576 h; 500 ppm of active ingredient; wheat plants, preventive spray; evaluated 24 days after inoculation; read-out: efficacy. On the procedure: Example C: In Vivo Preventive Test on Septoria tritici (Leaf Spot on Wheat) [table] The active ingredients are made soluble and homogenized in a mixture of Dimethyl sulfoxide/Acetone//Tween® 80 and then diluted in water to the desired concentration. The young plants of wheat are treated by spraying the active ingredient prepared as described above. Control plants are treated only with an aqueous solution of Acetone/Dimethyl sulfoxide/Tween® 80. After 24 hours, the plants are contaminated by spraying the leaves with an aqueous suspension of Septoria tritici spores. The contaminated wheat plants are incubated for 72 hours at 18° C. and at 100% relative humidity and then for 21 days at 20° C. and at 90% relative humidity. The test is evaluated 24 days after the inoculation. 0% means an efficacy which corresponds to that of the control plants while an efficacy of 100% means that no disease is observed.

A further assay relates to Uromyces appendiculatus. Put plainly: Example E: in vivo preventive test on Uromyces appendiculatus (bean rust). The note with it: 264 h, 500 ppm of active ingredient, bean plants, preventive spray, evaluated 11 days after inoculation, read-out: efficacy. Here is the method:
Example E: In Vivo Preventive Test on Uromyces appendiculatus (Bean Rust) [table] The active ingredients are made soluble and homogenized in a mixture of Dimethyl sulfoxide/Acetone//Tween® 80 and then diluted in water to the desired concentration. The young plants of bean are treated by spraying the active ingredient prepared as described above. Control plants are treated only with an aqueous solution of Acetone/Dimethyl sulfoxide/Tween® 80. After 24 hours, the plants are contaminated by spraying the leaves with an aqueous suspension of Uromyces appendiculatus spores. The contaminated bean plants are incubated for 24 hours at 20° C. and at 100% relative humidity and then for 10 days at 20° C. and at 70-80% relative humidity. The test is evaluated 11 days after the inoculation. 0% means an efficacy which corresponds to that of the control plants while an efficacy of 100% means that no disease is observed.

For a further assay, the system named is Venturia inaequalis. The assay can be described thus: Example H: in vivo preventive test on Venturia test (apples). The note with it: 240 h, 100 ppm of active ingredient, preventive spray, evaluated 10 days after inoculation, read-out: efficacy. Here is the method:
Example H: In Vivo Preventive Test on Venturia Test (Apples) [table] To produce a suitable preparation of active compound, 1 part by weight of active compound is mixed with the stated amounts of solvent and emulsifier, and the concentrate is diluted with water to the desired concentration. To test for preventive activity, young plants are sprayed with the preparation of active compound at the stated rate of application. After the spray coating has dried on, the plants are inoculated with an aqueous conidia suspension of the causal agent of apple scab (Venturia inaequalis) and then remain for 1 day in an incubation cabinet at approximately 20° C. and a relative atmospheric humidity of 100%. The plants are then placed in a greenhouse at approximately 21° C. and a relative atmospheric humidity of approximately 90%. The test is evaluated 10 days after the inoculation. 0% means an efficacy which corresponds to that of the untreated control, while an efficacy of 100% means that no disease is observed.

A further assay has as its system Alternaria solani. Put plainly: Example F: in vivo preventive test on Alternaria test (tomatoes). The note with it: 72 h, 100 ppm of active ingredient, preventive spray, evaluated 3 days after inoculation, read-out: efficacy. Here is the method: Example F: In Vivo Preventive Test on Alternaria Test (Tomatoes) [table] To produce a suitable preparation of active compound, 1 part by weight of active compound is mixed with the stated amounts of solvent and emulsifier, and the concentrate is diluted with water to the desired concentration. To test for preventive activity, young plants are sprayed with the preparation of active compound at the stated rate of application. After the spray coating has dried on, the plants are inoculated with an aqueous spore suspension of Alternaria solani. The plants are then placed in an incubation cabinet at approximately 20° C. and a relative atmospheric humidity of 100%. The test is evaluated 3 days after the inoculation. 0% means an efficacy which corresponds to that of the untreated control while an efficacy of 100% means that no disease is observed.

In another assay the test system is Phakopsora pachyrhizi. Put plainly: Example G: in vivo preventive test on Phakopsora test (soybeans). The note with it: 168 h, 100 ppm of active ingredient, preventive spray, evaluated 7 days after inoculation, read-out: efficacy. On the procedure: Example G: In Vivo Preventive Test on Phakopsora Test (Soybeans) [table] To produce a suitable preparation of active compound, 1 part by weight of active compound is mixed with the stated amounts of solvent and emulsifier, and the concentrate is diluted with water to the desired concentration. To test for preventive activity, young plants are sprayed with the preparation of active compound at the stated rate of application. After the spray coating has dried on, the plants are inoculated with an aqueous spore suspension of the causal agent of soybean rust (Phakopsora pachyrhizi) and stay for 24 h without light in an incubation cabinet at approximately 24° C. and a relative atmospheric humidity of 95%. The plants remain in the incubation cabinet at approximately 24° C. and a relative atmospheric humidity of approximately 80% and a day/night interval of 12 h. The test is evaluated 7 days after the inoculation. 0% means an efficacy which corresponds to that of the untreated control, while an efficacy of 100% means that no disease is observed.

In a further assay the test system is Puccinia triticina. Put plainly: Example K: in vivo preventive Puccinia triticina test (wheat). The note with it: 192 h, 500 ppm of active ingredient, preventive spray, evaluated 8 days after inoculation, read-out: efficacy. On the procedure: Example K: In Vivo Preventive Puccinia Triticina Test (Wheat)
To produce a suitable preparation of active compound, 1 part by weight of active compound or active compound combination is mixed with the stated amounts of solvent and emulsifier, and the concentrate is diluted with water to the desired concentration.
To test for preventive activity, young plants are sprayed with the preparation of active compound or active compound combination at the stated rate of application.
After the spray coating has been dried, the plants are sprayed with a spore suspension of Puccinia triticina. The plants remain for 48 hours in an incubation cabinet at approximately 20° C. and a relative atmospheric humidity of approximately 100%.
The plants are placed in the greenhouse at a temperature of approximately 20° C. and a relative atmospheric humidity of approximately 80%.
The test is evaluated 8 days after the inoculation. 0% means an efficacy which corresponds to that of the untreated control, while an efficacy of 100% means that no disease is observed.

On to `Cc1ccc(Oc2ccc(C(O)Cn3cncn3)c(Cl)n2)cc1Cl` (stereo not shown) [I.16], for which the pest or weed control at 500 ppm with Sphaerotheca fuliginea fell in the range of 90 to 100%; in the assay on Septoria tritici, 80 to 89%; with Uromyces appendiculatus, 90 to 100%. The pest or weed control at 100 ppm in the assay on Venturia inaequalis, in the assay with Alternaria solani and with Phakopsora pachyrhizi was 90 to 100% throughout.

Consider `C[C@@](O)(Cn1cncn1)c1cnc(Oc2ccc(Cl)cc2)cc1C(F)(F)F` [I.45], for which the pest or weed control at 500 ppm in the assay with Sphaerotheca fuliginea, in the assay with Septoria tritici, in the assay on Uromyces appendiculatus and in the assay on Puccinia triticina was 90 to 100% in each case. Further, the pest or weed control at 100 ppm with Venturia inaequalis, in the assay with Alternaria solani and with Phakopsora pachyrhizi was 90 to 100% in each case.

As to `OC(Cn1cncn1)c1ccc(Oc2ccc(Cl)cc2)nc1C(F)(F)F` (stereo not shown) [I.03, 1-[6-(4-chlorophenoxy)-2-(trifluoromethyl)-3-pyridyl]-2-(1,2,4-triazol-1-yl)ethanol], the pest or weed control at 500 ppm in the assay on Sphaerotheca fuliginea, with Septoria tritici, in the assay with Uromyces appendiculatus and in the assay with Puccinia triticina was 90 to 100% each time. Also, the pest or weed control at 100 ppm in the assay with Venturia inaequalis lay in the range of 90 to 100%; in the assay on Alternaria solani, 80 to 89%; in the assay on Phakopsora pachyrhizi it was 90 to 100%.

Turning to `OC(Cn1cncn1)c1ccc(Oc2ccc(Cl)cc2)nc1Cl` (stereo not shown) [I.14], the pest or weed control at 500 ppm in the assay with Sphaerotheca fuliginea, in the assay on Septoria tritici, in the assay on Uromyces appendiculatus and with Puccinia triticina was 90 to 100% in each case. Also, the pest or weed control at 100 ppm with Venturia inaequalis, in the assay on Alternaria solani and with Phakopsora pachyrhizi was 90 to 100% throughout.

Turning to `OC(Cn1cncn1)c1cnc(Oc2ccc(S(F)(F)(F)(F)F)cc2)cc1C(F)(F)F` (stereo not shown) [I.36], the pest or weed control at 500 ppm in the assay on Sphaerotheca fuliginea was in the range of 90 to 100%; with Septoria tritici, 80 to 89%; with Uromyces appendiculatus, 90 to 100%; in the assay with Puccinia triticina it was 90 to 100%. The pest or weed control at 100 ppm with Venturia inaequalis, in the assay on Alternaria solani and in the assay with Phakopsora pachyrhizi was 90 to 100% each time.

Turning to `CC(O)(Cn1cncn1)c1cnc(Oc2ccccc2)cc1Cl` (stereo not shown) [I.05], the pest or weed control at 500 ppm in the assay on Sphaerotheca fuliginea, in the assay with Septoria tritici, in the assay with Uromyces appendiculatus and in the assay on Puccinia triticina was 90 to 100% throughout. Moreover, the pest or weed control at 100 ppm with Venturia inaequalis, in the assay on Alternaria solani and with Phakopsora pachyrhizi was 90 to 100% throughout.

`O=C(Cn1cncn1)c1ccc(Oc2ccc(Cl)cc2)nc1C(F)(F)F` [VII.01, 1-[6-(4-chlorophenoxy)-2-(trifluoromethyl)-3-pyridyl]-2-(1,2,4-triazol-1-yl)ethanone]: the pest or weed control at 500 ppm with Sphaerotheca fuliginea fell in the range of 90 to 100%; with Septoria tritici, 80 to 89%; in the assay on Uromyces appendiculatus, 90 to 100%; in the assay on Puccinia triticina, 90 to 100%. Moreover, the pest or weed control at 100 ppm in the assay on Venturia inaequalis lay within 90 to 100%; with Alternaria solani, 80 to 89%; in the assay on Phakopsora pachyrhizi it was 80 to 89%.

For the molecule `CC(O)(Cn1cncn1)c1ccc(Oc2ccc(C(F)F)cc2)nc1Cl` (stereo not shown) [I.39], the pest or weed control at 500 ppm with Sphaerotheca fuliginea, with Septoria tritici, in the assay with Uromyces appendiculatus and with Puccinia triticina was 90 to 100% each time. The pest or weed control at 100 ppm with Venturia inaequalis was in the range of 80 to 89%; with Alternaria solani it was 90 to 100%; in the assay with Phakopsora pachyrhizi, 90 to 100%.

`OC(Cn1cncn1)(c1ccc(Oc2ccc(Cl)cc2)nc1C(F)(F)F)C1CC1` (stereo not shown) [I.91, 1-[6-(4-chlorophenoxy)-2-(trifluoromethyl)-3-pyridyl]-1-cyclopropyl-2-(1,2,4-triazol-1-yl)ethanol]: the pest or weed control at 500 ppm with Sphaerotheca fuliginea, with Septoria tritici, in the assay on Uromyces appendiculatus and in the assay with Puccinia triticina was 90 to 100% each time. For the same molecule, the pest or weed control at 100 ppm with Venturia inaequalis and with Phakopsora pachyrhizi was 90 to 100% throughout.

Take `CC(O)(Cn1cncn1)c1ccc(Oc2ccc(Cl)cc2)nc1C(F)(F)F` (stereo not shown) [I.01, 2-[6-(4-chlorophenoxy)-2-(trifluoromethyl)-3-pyridyl]-1-(1,2,4-triazol-1-yl)propan-2-ol]: the pest or weed control at 500 ppm with Sphaerotheca fuliginea, with Septoria tritici, in the assay with Uromyces appendiculatus and in the assay with Puccinia triticina was 90 to 100% throughout. In addition, the pest or weed control at 100 ppm in the assay on Venturia inaequalis, in the assay with Alternaria solani and in the assay with Phakopsora pachyrhizi was 90 to 100% in each case.

For `CC(O)(Cn1cncn1)c1ccc(Oc2ccc(S(F)(F)(F)(F)F)cc2)nc1Cl` (stereo not shown) [I.35], the pest or weed control at 500 ppm with Sphaerotheca fuliginea, in the assay with Septoria tritici, in the assay with Uromyces appendiculatus and with Puccinia triticina was 90 to 100% each time. Also, the pest or weed control at 100 ppm with Venturia inaequalis was in the range of 90 to 100%; in the assay on Alternaria solani, 90 to 100%; in the assay on Phakopsora pachyrhizi, 70 to 79%.

For the molecule `OC(Cn1cncn1)c1cnc(Oc2ccc(C(F)(F)F)cc2)cc1C(F)(F)F` (stereo not shown) [I.47], the pest or weed control at 500 ppm with Sphaerotheca fuliginea, in the assay with Septoria tritici, in the assay on Uromyces appendiculatus and with Puccinia triticina was 90 to 100% in each case. Also, the pest or weed control at 100 ppm with Venturia inaequalis, in the assay with Alternaria solani and with Phakopsora pachyrhizi was 90 to 100% each time.
